What was measured:
[1] = tested on: LPS-induced endotoxemia mouse model; assay: Plasma cytokine analysis in the LPS-induced endotoxemia mouse model; type: in vivo, male C57BL/6J mice; conditions: 50 mg/kg i.p. 3 hours before 20 mg/kg LPS i.p.; blood 3 hours post-LPS
Method: Terminal cardiac blood draws from the left ventricle occurred 3 hours post LPS injections using a 25 g needle and 1 mL syringe into an EDTA coated lavender blood collection tube (BD Medical, Franklin Lakes, NJ). Blood samples were centrifuged at 1000×g for 10 minutes within 30 minutes of collection. Plasma was extracted and diluted 10,000-fold for ELISA IL-6 measurement and diluted 10-fold for TNFα measurements.
Terminal cardiac blood draws from the left ventricle occurred 3 hours post LPS injections using a 25 g needle and 1 mL syringe into an EDTA coated lavender blood collection tubes (BD Medical, Franklin Lakes, NJ). Blood samples were centrifuged at 1000×g for 10 minutes within 30 minutes of collection. Plasma was extracted and diluted 10,000-fold for ELISA IL-6 measurement and diluted 10-fold for TNFα measurements. MAGPIX Luminex bead-based multiplex ELISA (Thermo Fisher Scientific, Waltham, MA) of mouse plasma (diluted 100-fold) measured for 26 various cytokines and chemokines and data was analyzed using the Luminex xPONENT software (Millipore) as per manufacturer's instructions. The 26-plex panel include murine IL-1β, IL-2, IL-4, IL-5, IL-6, IL-9, IL-10, IL-12p70, IL-13, IL-17A (CTLA-8), IL-18, IL-22, IL-23, IL-27, GM-CSF, IFNγ, TNFα, MCP-1 (CCL2), MIP-1α (CCL3), MIP-10 (CCL4), RANTES (CCL5), MCP-3 (CCL7), Eotaxin (CCL11), GROα (CXCL1), MIP-2a (CXCL2), and IP-10 (CXCL10).

[2] = biological target: T1, HDAC6 (Homo sapiens, UniProt Q9UBN7); assay: Fluorescence-based HDAC activity assay with fluorogenic peptide substrate (Reaction Biology); type: biochemical
T1 construct: purchased Reaction Biology Corporation
T1 sequence (Q9UBN7 1-1215): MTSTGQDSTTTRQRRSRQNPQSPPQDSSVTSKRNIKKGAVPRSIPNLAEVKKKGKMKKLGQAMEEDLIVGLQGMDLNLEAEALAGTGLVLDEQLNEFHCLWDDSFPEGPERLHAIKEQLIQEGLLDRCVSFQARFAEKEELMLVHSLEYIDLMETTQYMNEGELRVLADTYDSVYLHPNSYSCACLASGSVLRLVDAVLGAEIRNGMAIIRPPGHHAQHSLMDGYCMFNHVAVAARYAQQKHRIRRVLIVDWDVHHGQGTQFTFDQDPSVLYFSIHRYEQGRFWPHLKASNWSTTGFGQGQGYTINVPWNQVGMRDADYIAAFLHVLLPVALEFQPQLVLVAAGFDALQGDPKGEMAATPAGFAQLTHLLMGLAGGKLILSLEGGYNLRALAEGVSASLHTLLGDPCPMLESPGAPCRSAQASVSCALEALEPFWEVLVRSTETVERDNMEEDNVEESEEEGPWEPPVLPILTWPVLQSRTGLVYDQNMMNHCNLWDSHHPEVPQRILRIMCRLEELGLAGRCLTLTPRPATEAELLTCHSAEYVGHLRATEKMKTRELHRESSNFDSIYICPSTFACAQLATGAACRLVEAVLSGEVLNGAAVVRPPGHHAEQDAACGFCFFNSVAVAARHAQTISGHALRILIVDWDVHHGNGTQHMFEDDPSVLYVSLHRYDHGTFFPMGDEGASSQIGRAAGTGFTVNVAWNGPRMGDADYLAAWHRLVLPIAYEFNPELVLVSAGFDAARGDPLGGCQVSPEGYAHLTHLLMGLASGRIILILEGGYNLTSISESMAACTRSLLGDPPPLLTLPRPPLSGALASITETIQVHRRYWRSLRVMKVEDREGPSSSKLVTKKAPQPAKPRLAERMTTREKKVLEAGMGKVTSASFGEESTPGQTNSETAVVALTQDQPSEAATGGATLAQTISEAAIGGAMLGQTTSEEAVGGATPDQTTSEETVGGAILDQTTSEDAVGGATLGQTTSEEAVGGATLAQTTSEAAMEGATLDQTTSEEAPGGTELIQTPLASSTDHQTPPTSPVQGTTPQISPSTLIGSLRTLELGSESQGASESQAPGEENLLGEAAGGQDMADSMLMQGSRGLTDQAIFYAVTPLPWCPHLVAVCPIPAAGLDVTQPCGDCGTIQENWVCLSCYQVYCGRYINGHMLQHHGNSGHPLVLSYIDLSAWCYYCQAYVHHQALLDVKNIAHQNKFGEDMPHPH
Method: (§1) Fluorescence-based activity assays using fluorogenic peptides as substrates for HDAC1, 2, 3, 6, and 8 were performed by Reaction Biology Corporation (reactionbiology.com). […] The substrate for HDACs 1, 2, 3, and 6 was a fluorogenic peptide from p53 residues 379-382 (RHKK(Ac)AMC) (SEQ ID NO: 1). The substrate for HDAC8 was a fluorogenic peptide from p53 residues 379-382 (RHK(Ac)K(Ac)AMC) (SEQ ID NO: 2). SAHA-OH IC50 values were calculated using GraphPad Prism 4 program based on a sigmoidal dose-response equation. The blank (DMSO) value was entered as 1.00×10^−12 of concentration for curve fitting.

[3] = tested on: T2, HDAC1, 2, 3; assay: as above; type: biochemical
T2 construct: other: range over the three isoforms; other: 237-359 nM compared to 30000 nM
Method: as §1

- less selective HDAC6 inhibition compared to Tubastatin A ([2]; 23 nM compared to […] nM): 1.5 fold
- IC50 ([2]; read-out: IC50 against HDAC6): 0.023 µM
- IC50 ([3]; range over the three isoforms, read-out: IC50 against HDAC1, 2, 3): 0.237 to 0.359 µM
Structure (SMILES): O=C(CCCCCCC(=O)Nc1ccc(CO)cc1)NO [SAHA-OH, N^1-hydroxy-N^8-(4-(hydroxymethyl)phenyl)octanediamide]
- reduction of plasma IL-6 [1]: about 50%
- reduction of plasma TNFα [1]: about 50%
- more selective for HDAC1, 2, 3 compared to Tubastatin A ([3]; 237-359 nM compared to 30000 nM): approximately 100 fold
